# Experimental data: US9376725B1, “Methods of screening for compounds for treating muscular dystrophy using human ALPHA7 integrin mRNA translation regulation” (PTC Therapeutics, Inc., priority 2007, dated 2016)
# Experiments:
# mIGF1 mRNA = assay: fLuc reporter gene assay, mIGF1 5′-UTR and 3′-UTR stable cell line; assay type: cell-based, human; settings: 7.5 μM test concentration, 24 hours, vs 0.5% DMSO, luciferase luminescence, stable 293H or RD cells
# Text: (§1) As shown in the following examples, compounds that modulate the expression of proteins (e.g., mIGF1, ITGA7, or UTRN) have been identified or validated and have the potential to treat MD, or a form thereof. Stable muscle (RD) or kidney (293H) cell lines expressing the firefly luciferase (fLuc) reporter gene flanked by the 5′-UTR and 3′-UTR of mIGF1, ITGA7, or UTRN mRNA were constructed and used to identify or validate compounds able to specifically increase expression of a reporter gene via nucleic acid constructs comprising at least the 5′-UTR and 3′-UTR of mIGF1, ITGA7 or UTRN and to increase expression of endogenous mIGF1, ITGA7 or UTRN protein.
# (§2) A high-level expression vector, pcDNA™3.1/Hygro (Invitrogen Corp., Carlsbad, Calif.) was used for preparing the constructs comprising the luciferase gene flanked by any of the 5′-UTR and 3′-UTR, the 5′-UTR or the 3′-UTR of mIGF1, ITGA7, and UTRN mRNA. In a pcDNA™3.1/Hygro vector, the UTRs and restriction sites normally associated with cloning and/or expressing a gene of interest or reporter gene were removed or replaced. For each construct containing 5′ UTR sequences, the 5′ UTR sequences with a start codon were cloned into the vector using the appropriate restriction sites.
# (§3) Stable 293H and RD cell lines containing the firefly luciferase (fLuc) gene flanked by mIGF1, ITGA7, or UTRN 5′-UTR and 3′-UTR were cultured in DMEM medium supplemented with 10% FBS and 200 μg/mL hygromycin in Fisher T175 flasks. The cells were passaged every 4 days at 1:10 dilution. Cultures were kept in a 37° C. and 5% CO2 incubator. The cells were scaled-up three days before performing the assay. Two confluent T175 flasks were split into twenty T175 flasks (1:10 dilution). Cells were harvested from each confluent flask by removing all of the media and adding 4 mL of warmed trypsin to dislodge the cells. After the cells were dislodged, 16 mL of selective media was added for a final volume of 20 mL. The cells were expanded by adding 2 mL of the harvested cells into ten new T175 flasks plus 25 ml, of selective media. The twenty new flasks were placed into the 37° C., 5% CO2 incubator. On the day the assay was performed, the media was removed from the flasks and 3 mL of warmed trypsin was added to dislodge the cells. After the cells were dislodged, 10 mL of nonselective media was added to the flask. This was repeated for all twenty flasks and combined into one flask. 100 μL of the above cell culture plus 100 μL of Trypan Blue stain was counted on a hemocytometer. 38 μL of cells (approximately 263 cells/4) were plated in the presence of 2 μL of a compound to be tested (at final concentration of 7.5 μM with 0.5% DMSO).
# (§4) The firefly luciferase substrate used was Luc Lite Plus Packard #6016969. Luciferase activity was immediately assayed using a ViewLux Imaging system (Perkin Elmer).
# (§5) The screening assay was performed by preparing plates containing test compounds and controls, including wells that contained only vehicle or a high inhibitor concentration and wells that provided an 8-point dose response curve of puromycin, a non-specific standard control inhibitor. The cells were grown overnight in the presence of compounds or controls at 37° C. in 5% CO2. Compounds were screened once for percent inhibition at a 7.5 μM test concentration. After 24 hours, the amount of luminescence was determined using a ViewLux Imaging system (Perkin Elmer).
# (§6) The results for compounds shown in the following tables indicate that the compounds of the present invention enhance post-transcriptional expression of a nucleic acid construct comprising a reporter gene operably linked to any of the 5′-UTR and 3′-UTR, the 5′-UTR or the 3′-UTR of the target mIGF1 mRNA (Table 1), ITGA7 mRNA (Table 2), or UTRN mRNA (Table 3). […]
# ITGA7 mRNA = assay: fLuc reporter gene assay, ITGA7 5′-UTR and 3′-UTR stable cell line; assay type: cell-based, human; settings: 7.5 μM test concentration, 24 hours, vs 0.5% DMSO, luciferase luminescence, stable 293H or RD cells
# Text: as §1, §2, §3, §4, §5, §6
# UTRN mRNA = assay: fLuc reporter gene assay, UTRN 5′-UTR and 3′-UTR stable cell line; assay type: cell-based, human; settings: 7.5 μM test concentration, 24 hours, vs 0.5% DMSO, luciferase luminescence, stable 293H or RD cells
# Text: as §1, §2, §3, §4, §5, §6
# [1] = CellTiter-Glo cytotoxicity assay, U937; assay type: cell-based; settings: human, U937 cells (monocyte cell line); U937, relatively sensitive cell line
# Text: To evaluate cytotoxicity of the compounds in the 293H and RD cell lines, the CellTiter-Glo assay (Promega) is utilized. CellTiter-Glo determines the number of viable cells in culture based on quantification of the ATP present, which signals the presence of metabolically active cells. A reduction in cellular ATP is indicative of a cytotoxic or cytostatic effect. Doxorubicin, a known cytotoxic compound, is used to address the sensitivity of the tested cell line. For relatively sensitive cell lines, such as U937 (a human monocyte cell line), the CC50 of doxorubicin ranges from 4 to 10 nM.
# [2] = CellTiter-Glo cytotoxicity assay, Huh7; assay type: cell-based; settings: human, Huh7 cells (hepatoblastoma cell line); Huh7, intermediate level of sensitivity
# dystrophin [3] = settings: mouse model; results could not be replicated; cited from earlier work
# dystrophin [4] = settings: human clinical trials; cited from earlier work
Compound,"mIGF1, fold increase compared to negative control (mIGF1 mRNA)","ITGa7, fold increase compared to negative control (ITGA7 mRNA)","UTRN, fold increase compared to negative control (UTRN mRNA)",CC50 [1] [nM],CC50 [2] [nM],increase in dystrophin levels (dystrophin [3]),increase in expression of dystrophin (dystrophin [4])
"Nc1ccc(Sc2cc(Cl)nc(N)n2)cc1 [Cpd 1, 4-(4-aminophenylthio)-6-chloropyrimidin-2-amine]",** (two stars indicate a greater than one-fold and up to two-fold increase in target mRNA),** (two stars indicate a greater than one-fold and up to two-fold increase in target mRNA),** (two stars indicate a greater than one-fold and up to two-fold increase in target mRNA),,,,
"CN(C)c1ccc(-c2nc3cc([N+](=O)[O-])ccc3[nH]2)cc1 [Cpd 2, N,N-dimethyl-4-(5-nitro-1H-benzo[d]imidazol-2-yl)aniline]",** (two stars indicate a greater than one-fold and up to two-fold increase in target mRNA),**** (four stars indicate a greater than three-fold and up to four-fold increase in target mRNA),*** (three stars indicate a greater than two-fold and up to three-fold increase in target mRNA),,,,
"CCCc1cc(Cl)n2c(nc3ccccc32)c1C#N [Cpd 3, 1-chloro-3-propyl-benzoimidazo[1,2-a]pyridine-4-carbonitrile]",* (one star indicates less than one-fold increase in target mRNA),* (one star indicates less than one-fold increase in target mRNA),** (two stars indicate a greater than one-fold and up to two-fold increase in target mRNA),,,,
"Oc1cccc(-c2nc3ccc4ccccc4c3c3c2CCC3)c1 [Cpd 4, 3-(2,3-dihydro-1H-benzo[f]cyclopenta[c]quinolin-4-yl)phenol]",*** (three stars indicate a greater than two-fold and up to three-fold increase in target mRNA),*** (three stars indicate a greater than two-fold and up to three-fold increase in target mRNA),** (two stars indicate a greater than one-fold and up to two-fold increase in target mRNA),,,,
"CCOc1ccc(C(=O)NC(=S)Nc2ccc(-c3nc4ccccc4s3)cc2)cc1[N+](=O)[O-] [Cpd 5, N-(4-(benzo[d]thiazol-2-yl)phenylcarbamothioyl)-4-ethoxy-3-nitrobenzamide]",** (two stars indicate a greater than one-fold and up to two-fold increase in target mRNA),*** (three stars indicate a greater than two-fold and up to three-fold increase in target mRNA),*** (three stars indicate a greater than two-fold and up to three-fold increase in target mRNA),,,,
"N#CC1=C(N)Oc2c(ccc3ccccc23)C1c1cccc(C(F)(F)F)c1 (stereo not shown) [Cpd 6, 2-amino-4-(3-(trifluoromethyl)phenyl)-4H-benzo[h]chromene-3-carbonitrile]",* (one star indicates less than one-fold increase in target mRNA),* (one star indicates less than one-fold increase in target mRNA),** (two stars indicate a greater than one-fold and up to two-fold increase in target mRNA),,,,
"CCCCOc1ccc(C(=O)NC(=S)Nc2cc(-c3nc4ccccc4s3)ccc2C)cc1 [Cpd 7, N-(5-(benzo[d]thiazol-2-yl)-2-methylphenylcarbamothioyl)-4-butoxybenzamide]",*** (three stars indicate a greater than two-fold and up to three-fold increase in target mRNA),**** (four stars indicate a greater than three-fold and up to four-fold increase in target mRNA),** (two stars indicate a greater than one-fold and up to two-fold increase in target mRNA),,,,
"COc1cccc2c1C(=O)c1c(O)c3c(c(O)c1C2=O)C[C@@](O)(C(=O)CO)C[C@@H]3O[C@H]1C[C@H](N)[C@H](O)[C@H](C)O1 [doxorubicin, Doxorubicin]",,,,4 to 10,70 to 300,,
gentamicin,,,,,,10-20%,no increase
